Reference: US11173151B2, “Substituted triazole derivatives and uses thereof” (BAYER AKTIENGESELLSCHAFT, priority 2017, dated 2021)

Key:
[1] = target: T1, human V2 receptor (Homo sapiens, UniProt P30518); assay: Cellular in vitro assay for determining vasopressin receptor activity, V2 receptor cell line (CHO, CRE-luciferase); type: cell-based; details: CHO cell line transfected with human V2 receptor; [Arg8]-vasopressin at EC50 concentration, 3 hours; read-out: IC50 hV2
T1 construct: expressed in transfected cells; host or cells: CHO K1 (ATCC) expressing firefly luciferase under a CRE-responsive promoter
T1 sequence (P30518 whole entry): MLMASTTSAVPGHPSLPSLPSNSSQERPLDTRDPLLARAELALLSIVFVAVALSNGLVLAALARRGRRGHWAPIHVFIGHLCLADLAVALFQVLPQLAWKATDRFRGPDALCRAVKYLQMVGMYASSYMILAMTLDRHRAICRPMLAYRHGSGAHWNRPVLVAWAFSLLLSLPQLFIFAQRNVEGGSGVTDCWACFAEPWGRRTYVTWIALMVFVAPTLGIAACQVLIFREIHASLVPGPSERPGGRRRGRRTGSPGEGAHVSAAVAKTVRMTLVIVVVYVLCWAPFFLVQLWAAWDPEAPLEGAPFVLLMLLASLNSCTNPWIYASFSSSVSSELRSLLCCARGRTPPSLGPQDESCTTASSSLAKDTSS

[2] = target: T2, human V1a receptor (Homo sapiens, UniProt P37288); assay: Cellular in vitro assay for determining vasopressin receptor activity, V1a receptor cell line (CHO, aequorin luminescence); type: cell-based; details: for IC50: CHO cell line transfected with human V1a receptor, [Arg]-vasopressin at EC50 concentration, read-out: IC50 hV1a; for ratio IC50 hV2/hV1a: selectivity ratio IC50 hV2 / IC50 hV1a
T2 construct: expressed in transfected cells; host or cells: CHO K1 (ATCC), also stably transfected with a modified aequorin
T2 sequence (P37288 whole entry): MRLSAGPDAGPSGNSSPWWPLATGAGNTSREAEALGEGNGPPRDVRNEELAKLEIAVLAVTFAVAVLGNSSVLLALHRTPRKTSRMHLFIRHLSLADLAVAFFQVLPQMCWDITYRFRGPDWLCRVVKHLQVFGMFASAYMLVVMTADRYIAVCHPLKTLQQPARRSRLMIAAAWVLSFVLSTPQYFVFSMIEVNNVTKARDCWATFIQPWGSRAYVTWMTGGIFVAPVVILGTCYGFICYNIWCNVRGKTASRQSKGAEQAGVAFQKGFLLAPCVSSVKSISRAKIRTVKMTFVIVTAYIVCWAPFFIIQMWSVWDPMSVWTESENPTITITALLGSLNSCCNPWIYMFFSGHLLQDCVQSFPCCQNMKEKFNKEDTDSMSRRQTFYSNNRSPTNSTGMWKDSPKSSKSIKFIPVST
How it was run: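 Cells were plated the day before in medium containing 5 μg/ml coelenterazine and kept at 37° C. Compounds at various concentrations were then added for 10 minutes. Next, [Arg]-vasopressin at EC50 was applied and light output recorded at once, yielding IC50.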

Row | SMILES | IC50 [1] [nM] | IC50 [2] [nM] | ratio IC50 hV2/hV1a [2]
1 | Cc1ccnc(NC(=O)c2ccccc2-n2cnc(Cn3nc(-c4ccc(Cl)cc4)n(C[C@H](O)C(F)(F)F)c3=O)n2)c1 [Example 230, 2-[3-({3-(4-Chlorophenyl)-5-oxo-4-[(2S)-3,3,3-trifluoro-2-hydroxypropyl]-4,5-dihydro-1H-1,2,4-triazol-1-yl}methyl)-1H-1,2,4-triazol-1-yl]-N-(4-methylpyridin-2-yl)benzamide] | 56.5 | 8.5 | 6.6
2 | CONC(=O)c1ccccc1-n1cnc(Cn2nc(-c3ccc(Cl)cc3)n(C[C@H](O)C(F)(F)F)c2=O)n1 [Example 232, 2-[3-({3-(4-Chlorophenyl)-5-oxo-4-[(2S)-3,3,3-trifluoro-2-hydroxypropyl]-4,5-dihydro-1H-1,2,4-triazol-1-yl}methyl)-1H-1,2,4-triazol-1-yl]-N-methoxybenzamide] | 535 | 2.2 | 243.2
3 | N[C@H]1CCCC[C@@H]1NC(=O)c1ccccc1-n1cnc(Cn2nc(-c3ccc(Cl)cc3)n(C[C@H](O)C(F)(F)F)c2=O)n1 [Example 233, N-[(1S,2S)-2-Aminocyclohexyl]-2-[3-({3-(4-chlorophenyl)-5-oxo-4-[(2S)-3,3,3-trifluoro-2-hydroxypropyl]-4,5-dihydro-1H-1,2,4-triazol-1-yl}methyl)-1H-1,2,4-triazol-1-yl]benzamide] | 6700 | 14.4 | 463.7
4 | N[C@@H]1CCCC[C@@H]1NC(=O)c1ccccc1-n1cnc(Cn2nc(-c3ccc(Cl)cc3)n(C[C@H](O)C(F)(F)F)c2=O)n1 [Example 234, N-[(1S,2R)-2-Aminocyclohexyl]-2-[3-({3-(4-chlorophenyl)-5-oxo-4-[(2S)-3,3,3-trifluoro-2-hydroxypropyl]-4,5-dihydro-1H-1,2,4-triazol-1-yl}methyl)-1H-1,2,4-triazol-1-yl]benzamide] | 2900 | 6.95 | 417.3
5 | O=C(NCc1ccc(F)cc1)c1ccccc1-n1cnc(Cn2nc(-c3ccc(Cl)cc3)n(C[C@H](O)C(F)(F)F)c2=O)n1 [Example 235, 2-[3-({3-(4-Chlorophenyl)-5-oxo-4-[(2S)-3,3,3-trifluoro-2-hydroxypropyl]-4,5-dihydro-1H-1,2,4-triazol-1-yl}methyl)-1H-1,2,4-triazol-1-yl]-N-(4-fluorobenzyl)benzamide] | 355 | 8.7 | 40.8
6 | O=C(NCc1cccc(F)c1)c1ccccc1-n1cnc(Cn2nc(-c3ccc(Cl)cc3)n(C[C@H](O)C(F)(F)F)c2=O)n1 [Example 236, 2-[3-({3-(4-Chlorophenyl)-5-oxo-4-[(2S)-3,3,3-trifluoro-2-hydroxypropyl]-4,5-dihydro-1H-1,2,4-triazol-1-yl}methyl)-1H-1,2,4-triazol-1-yl]-N-(3-fluorobenzyl)benzamide] | 340 | 7.05 | 48.2
7 | C[C@H](NC(=O)c1ccccc1-n1cnc(Cn2nc(-c3ccc(Cl)cc3)n(C[C@H](O)C(F)(F)F)c2=O)n1)C(N)=O [Example 237, N-[(2S)-1-Amino-1-oxopropan-2-yl]-2-[3-({3-(4-chlorophenyl)-5-oxo-4-[(2S)-3,3,3-trifluoro-2-hydroxypropyl]-4,5-dihydro-1H-1,2,4-triazol-1-yl}methyl)-1H-1,2,4-triazol-1-yl]benzamide] | 445 | 15.5 | 28.7
8 | Cc1nnc(NC(=O)c2ccccc2-n2cnc(Cn3nc(-c4ccc(Cl)cc4)n(C[C@H](O)C(F)(F)F)c3=O)n2)s1 [Example 238, 2-[3-({3-(4-Chlorophenyl)-5-oxo-4-[(2S)-3,3,3-trifluoro-2-hydroxypropyl]-4,5-dihydro-1H-1,2,4-triazol-1-yl}methyl)-1H-1,2,4-triazol-1-yl]-N-(5-methyl-1,3,4-thiadiazol-2-yl)benzamide] | 44.5 | 13.5 | 3.3
9 | O=C(NCc1ccc(F)c(F)c1)c1ccccc1-n1cnc(Cn2nc(-c3ccc(Cl)cc3)n(C[C@H](O)C(F)(F)F)c2=O)n1 [Example 239, 2-[3-({3-(4-Chlorophenyl)-5-oxo-4-[(2S)-3,3,3-trifluoro-2-hydroxypropyl]-4,5-dihydro-1H-1,2,4-triazol-1-yl}methyl)-1H-1,2,4-triazol-1-yl]-N-(3,4-difluorobenzyl)benzamide] | 240 | 7.35 | 32.7
10 | Cc1ccnc(NC(=O)c2ccccc2-n2cnc(Cn3nc(-c4ccc(Cl)cc4)n(C[C@H](O)C(F)(F)F)c3=O)n2)n1 [Example 240, 2-[3-({3-(4-Chlorophenyl)-5-oxo-4-[(2S)-3,3,3-trifluoro-2-hydroxypropyl]-4,5-dihydro-1H-1,2,4-triazol-1-yl}methyl)-1H-1,2,4-triazol-1-yl]-N-(4-methylpyrimidin-2-yl)benzamide] | 300 | 12.5 | 24.0
11 | O=C(NCCF)c1ccccc1-n1cnc(Cn2nc(-c3ccc(Cl)cc3)n(C[C@H](O)C(F)(F)F)c2=O)n1 [Example 241, 2-[3-({3-(4-Chlorophenyl)-5-oxo-4-[(2S)-3,3,3-trifluoro-2-hydroxypropyl]-4,5-dihydro-1H-1,2,4-triazol-1-yl}methyl)-1H-1,2,4-triazol-1-yl]-N-(2-fluoroethyl)benzamide] | 73.5 | 2.2 | 33.4
12 | O=C(NCc1c(F)cccc1F)c1ccccc1-n1cnc(Cn2nc(-c3ccc(Cl)cc3)n(C[C@H](O)C(F)(F)F)c2=O)n1 [Example 242, 2-[3-({3-(4-Chlorophenyl)-5-oxo-4-[(2S)-3,3,3-trifluoro-2-hydroxypropyl]-4,5-dihydro-1H-1,2,4-triazol-1-yl}methyl)-1H-1,2,4-triazol-1-yl]-N-(2,6-difluorobenzyl)benzamide] | 126 | 5.7 | 22.2
13 | O=C(NCc1cc(F)cc(F)c1)c1ccccc1-n1cnc(Cn2nc(-c3ccc(Cl)cc3)n(C[C@H](O)C(F)(F)F)c2=O)n1 [Example 243, 2-[3-({3-(4-Chlorophenyl)-5-oxo-4-[(2S)-3,3,3-trifluoro-2-hydroxypropyl]-4,5-dihydro-1H-1,2,4-triazol-1-yl}methyl)-1H-1,2,4-triazol-1-yl]-N-(3,5-difluorobenzyl)benzamide] | 540 | 22.5 | 24.0
14 | Cc1noc(NC(=O)c2ccccc2-n2cnc(Cn3nc(-c4ccc(Cl)cc4)n(C[C@H](O)C(F)(F)F)c3=O)n2)c1C [Example 244, 2-[3-({3-(4-Chlorophenyl)-5-oxo-4-[(2S)-3,3,3-trifluoro-2-hydroxypropyl]-4,5-dihydro-1H-1,2,4-triazol-1-yl}methyl)-1H-1,2,4-triazol-1-yl]-N-(3,4-dimethyl-1,2-oxazol-5-yl)benzamide] | 230 | 7.3 | 31.5
15 | CC(C)=CCNC(=O)c1ccccc1-n1cnc(Cn2nc(-c3ccc(Cl)cc3)n(C[C@H](O)C(F)(F)F)c2=O)n1 [Example 245, 2-[3-({3-(4-Chlorophenyl)-5-oxo-4-[(2S)-3,3,3-trifluoro-2-hydroxypropyl]-4,5-dihydro-1H-1,2,4-triazol-1-yl}methyl)-1H-1,2,4-triazol-1-yl]-N-(3-methylbut-2-en-1-yl)benzamide] | 810 | 6.45 | 125.6
16 | O=C(N[C@H]1CC[C@H](O)CC1)c1ccccc1-n1cnc(Cn2nc(-c3ccc(Cl)cc3)n(C[C@H](O)C(F)(F)F)c2=O)n1 [Example 246, 2-[3-({3-(4-Chlorophenyl)-5-oxo-4-[(2S)-3,3,3-trifluoro-2-hydroxypropyl]-4,5-dihydro-1H-1,2,4-triazol-1-yl}methyl)-1H-1,2,4-triazol-1-yl]-N-(trans-4-hydroxycyclohexyl)benzamide] | 1200 | 4.55 | 263.7
17 | O=C(Nc1ccccc1O)c1ccccc1-n1cnc(Cn2nc(-c3ccc(Cl)cc3)n(C[C@H](O)C(F)(F)F)c2=O)n1 [Example 247, 2-[3-({3-(4-Chlorophenyl)-5-oxo-4-[(2S)-3,3,3-trifluoro-2-hydroxypropyl]-4,5-dihydro-1H-1,2,4-triazol-1-yl}methyl)-1H-1,2,4-triazol-1-yl]-N-(2-hydroxyphenyl)benzamide] | 10.4 | 2.4 | 4.4
18 | O=C(Nc1cccnc1)c1ccccc1-n1cnc(Cn2nc(-c3ccc(Cl)cc3)n(C[C@H](O)C(F)(F)F)c2=O)n1 [Example 248, 2-[3-({3-(4-Chlorophenyl)-5-oxo-4-[(2S)-3,3,3-trifluoro-2-hydroxypropyl]-4,5-dihydro-1H-1,2,4-triazol-1-yl}methyl)-1H-1,2,4-triazol-1-yl]-N-(pyridin-3-yl)benzamide] | 65 | 1.2 | 54.2
19 | Cc1ccc(NC(=O)c2ccccc2-n2cnc(Cn3nc(-c4ccc(Cl)cc4)n(C[C@H](O)C(F)(F)F)c3=O)n2)cn1 [Example 249, 2-[3-({3-(4-Chlorophenyl)-5-oxo-4-[(2S)-3,3,3-trifluoro-2-hydroxypropyl]-4,5-dihydro-1H-1,2,4-triazol-1-yl}methyl)-1H-1,2,4-triazol-1-yl]-N-(6-methylpyridin-3-yl)benzamide] | 136 | 2.8 | 48.6
20 | Cc1cc(NC(=O)c2ccccc2-n2cnc(Cn3nc(-c4ccc(Cl)cc4)n(C[C@H](O)C(F)(F)F)c3=O)n2)cnc1F [Example 250, 2-[3-({3-(4-Chlorophenyl)-5-oxo-4-[(2S)-3,3,3-trifluoro-2-hydroxypropyl]-4,5-dihydro-1H-1,2,4-triazol-1-yl}methyl)-1H-1,2,4-triazol-1-yl]-N-(6-fluoro-5-methylpyridin-3-yl)benzamide] | 87 | 4.45 | 19.6
